Source: US20240238425A1, “HSD17B13 Inhibitors and/or Degraders” (Pfizer Inc., priority 2022, published 2024)
Where a name gives a salt, the structure may show the parent alone.

Test system: HiBiT-HSD17β13 fusion protein (N-terminal HiBiT-tagged HSD17β13 isoform D) in Huh7 HiBiT-HSD17β13 OE cells
Assay: Whole-cell Huh7-HSD17B13 HiBiT assay (degrader potency and maximal efficacy, luminescence readout)
Assay type: cell-based, human
Details: 24 hour incubation, geometric mean, * = geometric mean for all forms tested (parent and salt forms); for DC50: read-out: Huh7_HIBIT-HSD17β13_DC50 GMean DC50; for Huh7_HIBIT-HSD17β13_DC50 GMean Asymptote Maximum: max. concentration 1 μM
Method: Degrader potency and maximal efficacy of test compounds were determined using a whole-cell Huh7-HSD17B13 HiBiT assay, utilizing a luminescence readout. A HiBiT tag was fused to the N-terminus of HSD17β13, and therefore the HiBiT luminescence signal produced in the assay was proportional to the level of HiBiT-HSD17β13 fusion protein in a sample.
A Huh7 HiBiT-HSD17β13 OE cell line was generated using electroporation with an N-terminal HiBiT-tagged HSD17β13 isoform D overexpression plasmid, followed by geneticin selection to produce a stable pool. Clones were created with varying HiBiT signals to optimize HiBiT HSD17 β13 ratios. A clone with similar HSD17β13 expression levels as human primary hepatocytes was selected for the compound screen.
Greiner 384-well white opaque, flat bottom, tissue culture treated plates (Greiner #781080) were used for both HiBiT and CTG assays. The treated plates were spotted with 25 nL of a compound which had been serial diluted 1 in 3.162 in 100% DMSO for an 11-point concentration response curve, with duplicate points at each concentration. The maximum concentration of the compounds was 1 mM, which was later diluted with cell suspension for a maximum concentration of 1 μM). High percentage effect (HPE) wells and zero percentage effect (ZPE) wells located in columns 1 and 24 were spotted with 25 nL of DMSO (Sigma #D2650) using an ECHO Acoustic Liquid Handler (Labcyte Echo 550 Series). Each plate was performed in duplicate.
The Huh7 HiBiT-HSD17β13 OE cells were plated on top of a compound or a DMSO control at 3,000 viable cells/well in 25 μL growth media (DMEM (Gibco #10569), 10% FBS HI (Gibco #16140), 1× Pen/Strep (Gibco #15070), 1×MEM Non-Essential Amino Acids (Gibco #11140), and 300 μg/mL Geneticin (Gibco #10131) in columns 2-24 of the plates. Huh7 parental cells were plated using the same parameters in column 1 (HPE) in the same culture medium, excluding Geneticin selection. Cells were incubated overnight with the compounds for 24 hours (with lid) at 37° C. ([…]).
Each assay was conducted after a 24 hour incubation period. In the HiBiT assay plates, 25 μL of complete Nano-Glo HiBiT Lytic detection system (Promega #PRN3040), consisting of HiBiT Lytic Buffer with the addition of 1:100 LgBiT Protein and 1:50 Substrate, was added to each well. In CTG counter screen plates, 25 μL of Cell Titer-Glo Luminescent Reagent (Promega #G7573) was added to each well. Both plates were centrifuged for 2 minutes at 1000 rpm and incubated at room temperature, in the dark, for 10 minutes. Then Luminescence was read using an EnVision Plate Reader (Perkin Elmer PE2103).
The raw data from the Envision Plate Reader was expressed as relative luminescence units (RLUs) for each well of the assay plates. Using HPE and ZPE controls, the % effect was calculated for each sample well as follows: Percent effect=[(sample RLU−HPE RLU)\(ZPE RLU−HPE RLU)]*100. The percent effect was plotted versus the compound concentration and a 50% degradation ([…]) was determined using a four-parameter logistic dose response equation. The raw data was analyzed using ABase (IDBS).

Row | DC50 | SMILES | Huh7_HIBIT-HSD17β13_DC50 GMean Asymptote Maximum
1 | 1.7 nM | O=C1CCN(c2cnn3cc(CCCN4CCN(c5ncc(-c6ccn7cc([C@]89CC[C@](CNC(=O)c%10cc(F)c(O)c(F)c%10F)(CC8)CC9)nc7c6)cn5)CC4)ccc23)C(=O)N1 [Example 99, N-[(4-{7-[2-(4-{3-[3-(2,4-dioxo-1,3-diazinan-1-yl)pyrazolo[1,5-a]pyridin-6-yl]propyl}piperazin-1-yl)pyrimidin-5-yl]imidazo[1,2-a]pyridin-2-yl}bicyclo[2.2.2]octan-1-yl)methyl]-2,3,5-trifluoro-4-hydroxybenzamide, formate salt] | 70%
2 | 0.86 nM | Cn1c(=O)n(C2CCC(=O)NC2=O)c2ccc(CCCN3C[C@@H]4CN(c5ccc6cn([C@H]7CC[C@H](CNC(=O)c8cc(F)c(O)c(F)c8F)CC7)nc6c5)C[C@@H]4C3)cc21 (mixture of isomers) [Example 85, N-{[(1r,4r)-4-{6-[(3aR,6aS)-5-(3-{1-[(3RS)-2,6-dioxopiperidin-3-yl]-3-methyl-2-oxo-2,3-dihydro-1H-benzimidazol-5-yl}propyl)hexahydropyrrolo[3,4-c]pyrrol-2(1H)-yl]-2H-indazol-2-yl}cyclohexyl]methyl}-2,3,5-trifluoro-4-hydroxybenzamide] | 73%
3 | 0.85 nM | Cc1ccc(C(=O)N2CCC3(CCC(N4CCN(c5ccc6cn([C@H]7CC[C@H](CNC(=O)c8cc(F)c(O)c(F)c8F)CC7)nc6c5)CC4)CC3)CC2)cc1N1CCC(=O)NC1=O [Example 111, N-({(1r,4r)-4-[6-(4-{3-[3-(2,4-dioxo-1,3-diazinan-1-yl)-4-methylbenzoyl]-3-azaspiro[5.5]undecan-9-yl}piperazin-1-yl)-2H-indazol-2-yl]cyclohexyl}methyl)-2,3,5-trifluoro-4-hydroxybenzamide, trifluoroacetate salt] | 80%
4 | 0.27 nM | Cn1c(=O)n(C2CCC(=O)NC2=O)c2ccc(CCCN3Cc4cnc(-c5ccc6cn([C@H]7CC[C@H](CNC(=O)c8cc(F)c(O)c(F)c8F)CC7)nc6c5)nc4C3)cc21 (mixture of isomers) [Example 86, N-{[(1r,4r)-4-{6-[6-(3-{1-[(3RS)-2,6-dioxopiperidin-3-yl]-3-methyl-2-oxo-2,3-dihydro-1H-benzimidazol-5-yl}propyl)-6,7-dihydro-5H-pyrrolo[3,4-d]pyrimidin-2-yl]-2H-indazol-2-yl}cyclohexyl]methyl}-2,3,5-trifluoro-4-hydroxybenzamide] | 78%
5 | 0.28 nM | Cn1c(=O)n(C2CCC(=O)NC2=O)c2ccc(CCCN3CCN(c4nc(-c5nc([C@]67CC[C@](CNC(=O)c8cc(F)c(O)c(F)c8F)(CC6)CC7)no5)cc(-n5ccnc5)n4)CC3)cc21 (mixture of isomers) [Example 125, N-{[4-(5-{2-[4-(3-{1-[(3RS)-2,6-dioxopiperidin-3-yl]-3-methyl-2-oxo-2,3-dihydro-1H-benzimidazol-5-yl}propyl)piperazin-1-yl]-6-(1H-imidazol-1-yl)pyrimidin-4-yl}-1,2,4-oxadiazol-3-yl)bicyclo[2.2.2]octan-1-yl]methyl}-2,3,5-trifluoro-4-hydroxybenzamide, formate salt] | 85%
6 | 0.19 nM | Cn1c(=O)n(C2CCC(=O)NC2=O)c2ccc(CCCN3CCOC4(CCN(c5ccc6cn([C@H]7CC[C@H](CNC(=O)c8cc(F)c(O)c(F)c8F)CC7)nc6c5)CC4)C3)cc21 (mixture of isomers) [Example 75, N-{[(1r,4r)-4-{6-[4-(3-{1-[(3RS)-2,6-dioxopiperidin-3-yl]-3-methyl-2-oxo-2,3-dihydro-1H-benzimidazol-5-yl}propyl)-1-oxa-4,9-diazaspiro[5.5]undecan-9-yl]-2H-indazol-2-yl}cyclohexyl]methyl}-2,3,5-trifluoro-4-hydroxybenzamide, trifluoroacetate salt] | 88%
7 | 0.96 nM | Cc1ccc(C(=O)N2CCC3(CC2)C[C@H](N2CCN(c4ncc(-c5ccc6cn([C@H]7CC[C@H](CNC(=O)c8cc(F)c(O)c(F)c8F)CC7)nc6c5)cn4)CC2)CO3)cc1N1CCC(=O)NC1=O [Example 73, N-{[(1r,4r)-4-{6-[2-(4-{(3S)-8-[3-(2,4-dioxo-1,3-diazinan-1-yl)-4-methylbenzoyl]-1-oxa-8-azaspiro[4.5]decan-3-yl}piperazin-1-yl)pyrimidin-5-yl]-2H-indazol-2-yl}cyclohexyl]methyl}-2,3,5-trifluoro-4-hydroxybenzamide, trifluoroacetate salt] | 76%
8 | 3 nM | O=C1CCN(c2cc(C(=O)N3CCC(CN4CCN(c5ncc(-c6ccc7cn([C@H]8CC[C@H](CNC(=O)c9cc(F)c(O)c(F)c9F)CC8)nc7c6)cn5)CC4)CC3)ccc2Cl)C(=O)N1 [Example 89, N-{[(1r,4r)-4-(6-{2-[4-({1-[4-chloro-3-(2,4-dioxo-1,3-diazinan-1-yl)benzoyl]piperidin-4-yl}methyl)piperazin-1-yl]pyrimidin-5-yl}-2H-indazol-2-yl)cyclohexyl]methyl}-2,3,5-trifluoro-4-hydroxybenzamide, formate salt] | 77%
9 | 1.5 nM | Cn1c(=O)n(C2CCC(=O)NC2=O)c2ccc(CCCN3CCc4cc(-c5ccc6cn([C@H]7CC[C@H](CNC(=O)c8cc(F)c(O)c(F)c8F)CC7)nc6c5)ncc4C3)cc21 (mixture of isomers) [Example 88, N-{[(1r,4r)-4-{6-[7-(3-{1-[(3RS)-2,6-dioxopiperidin-3-yl]-3-methyl-2-oxo-2,3-dihydro-1H-benzimidazol-5-yl}propyl)-5,6,7,8-tetrahydro-2,7-naphthyridin-3-yl]-2H-indazol-2-yl}cyclohexyl]methyl}-2,3,5-trifluoro-4-hydroxybenzamide] | 81%
10 | 0.32 nM | Cn1c(=O)n(C2CCC(=O)NC2=O)c2ccc(CCCN3CCN(c4ccc(-c5nc([C@]67CC[C@](CNC(=O)c8cc(F)c(O)c(F)c8F)(CC6)CC7)no5)nn4)CC3)cc21 (mixture of isomers) [Example 66, N-{[4-(5-{6-[4-(3-{1-[(3RS)-2,6-dioxopiperidin-3-yl]-3-methyl-2-oxo-2,3-dihydro-1H-benzimidazol-5-yl}propyl)piperazin-1-yl]pyridazin-3-yl}-1,2,4-oxadiazol-3-yl)bicyclo[2.2.2]octan-1-yl]methyl}-2,3,5-trifluoro-4-hydroxybenzamide, trifluoroacetate salt] | 75%

Row | SMILES | DC50 | Huh7_HIBIT-HSD17β13_DC50 GMean Asymptote Maximum
11 | Cn1c(=O)n(C2CCC(=O)NC2=O)c2ccc(CCCN3CCN(c4ncc(-c5ccn6cc(C78CCC(CNC(=O)c9cc(F)c(O)c(F)c9F)(CC7)CC8)nc6c5)cn4)CC3)cc21.O=C(O)C(F)(F)F (racemic) [Example 12, N-{[4-(7-{2-[4-(3-{1-[(3RS)-2,6-Dioxopiperidin-3-yl]-3-methyl-2-oxo-2,3-dihydro-1H-benzimidazol-5-yl}propyl)piperazin-1-yl]pyrimidin-5-yl}imidazo[1,2-a]pyridin-2-yl)bicyclo[2.2.2]octan-1-yl]methyl}-2,3,5-trifluoro-4-hydroxybenzamide, trifluoroacetate salt] | 0.14 nM | 84%
